≈ marks a conversion by molar mass, not a printed value. Like-named read-outs stand apart in the source and are kept apart here. Where a SMILES comes first, the peptide text is derived from it. The star is where a group is joined. Butanoyl(2,2-Me2) = CCC(C)(C)C(=O)*; Octanoyl(6-Me) = CCC(C)CCCCC(=O)*; Octanoyl = CCCCCCCC(=O)*
Assays:
[1] = test system: P. aeruginosa PAO1; test: Time-kill curves (T3log); type: cell-based, Pseudomonas aeruginosa; details: MH, 37 °C with shaking, sampling 15 min to 6 h
Procedure: Time-kill studies were determined with glass tubes containing 10 ml of MH and different concentrations of the peptides (1, 2 and 4 times their MIC). Overnight cultures of P. aeruginosa PAO1 in TSB were adjusted at 5 × 10^7 CFU/ml turbidimetrically. This […] suspension was diluted in the MH tubes (1:50) for the time-kill assay. Tubes were incubated at 37 °C with shaking and samples were taken at the following time points after the beginning of incubation: 15 min, 30 min, 45 min, 1 h, 2 h, 4 h and 6 h. Each sample was serially diluted and plated. The lower limit of detection was 30 CFU/ml (1.5 × log10 CFU/ml).
To quantify the killing efficiency of the treatments, the parameter T3log (defined as the time required for the treatment to decrease 3 logs the initial inoculum) was used.

[2] = test system: Pseudomonas aeruginosa PAO1 planktonic cells; type: cell-based
Procedure: Minimal inhibitory concentrations (MIC) of the peptides were determined in Mueller Hinton (MH) medium (Difco Laboratories, Detroit, MI, USA) by the broth microdilution assay following recommendations of the Clinical and Laboratory Standards Institute (CLSI, formerly NCCLS) with some modifications. Minimum bactericidal concentration (MBC) was defined as the concentration that caused a 3-log viability decrease in the initial inoculum and was calculated by colony counts on TSA plates incubated for 24 h at 37 °C.

[3] = test system: P. aeruginosa PAO1 biofilms; type: cell-based, Pseudomonas aeruginosa
Procedure: (§1) In the microplate based assay, biofilms were grown with no fluid shear and the anti-biofilm activity of peptides was assessed as previously described with some modifications. Briefly, overnight cultures of P. aeruginosa PAO1 in TSB were adjusted at 5 × 10^7 CFU/ml turbidimetrically. This suspension was diluted in TSB (1:100) and 100 μl aliquots were added to the wells of a 96-well plate. After 24 h incubation at 37 °C, planktonic bacteria were removed by gently inverting the plate and then the biofilm-containing wells were washed with saline (0.85 % NaCl). The antimicrobial compound was serially diluted in Mueller Hinton (MH) at final concentrations higher than its planktonic MIC and 200 μl of each dilution was added to the wells. After 24 h incubation at 37 °C, biofilms were stained with either MTT (Sigma, St. Louis, MO, USA) or crystal violet (CV). As control, duplicate biofilms were incubated with MH containing no antimicrobial.
To quantify the disinfection (or bactericidal) activity of the antimicrobials on the biofilms, the MTT assay was used and performed as follows. After the treatment, the biofilms were rinsed with saline and 200 μl of a 0.5 mg/ml dilution of MTT in MH, was added to the wells. Incubation of biofilm with MTT was carried out during 4 h at 37 °C with no shaking. As a measure of cell viability, the conversion of MTT to a […] was determined by solubilizing the salt in 100 μl/well of DMSO and reading the absorbance of the resulting solution at 540 nm.
(§2) Both the disinfection and removal activity of antimicrobials were expressed as “activity percentage”, a parameter that was calculated using the following formula: ActivityPercentage=C−B−T−B/C−B×100
(§3) Where C is the absorbance value of the control well with non-treated biofilm, T corresponds to the absorbance value of the well with treated biofilm and B is the blank well (i.e. with no biofilm).

[4] = test system: P. aeruginosa PAO1 biofilms; test: Microplate biofilm assay (static flow regime), crystal violet removal activity; type: cell-based, Pseudomonas aeruginosa; details: 10XMIC, 24 h at 37 °C, biofilms grown in microplates (static conditions)
Procedure: as §1, with “After 24 h incubation at 37 °C, biofilms were stained with either MTT (Sigma, St. Louis, MO, USA) or crystal violet (CV). As control, duplicate biofilms were incubated with MH containing no antimicrobial.” left out
The ability of the antimicrobials to remove the biofilm attached to the microplate well was determined by CV staining. […] The absorbance was measured at 595 nm.
as §2, §3

[5] = test system: HeLa cells; test: Cytotoxicity assay (MTT); type: cell-based; details: HeLa cells, 24 h, MTT; maximum concentration assayed 10 times their MIC
Procedure: Cytotoxicity was assayed on HeLa cells using the MTT [3-(4,5-dimethylthiazoyl-2-yl) 2,5 diphenyltetrazolium bromide protocol. Cells were grown in Dulbeccos’s modified Eagle’s medium (DMEM) and adjusted to a concentration of 10^5 cells/ml (MTT) in 96 wells polystyrene plates. Plates were incubated for 24 h at 37 °C in 5 % CO2, then supplemented with increasing amounts of peptides diluted in 2 mM Hepes pH 7.2, and incubation carried on for 24 h under the same conditions. After this time, filter-sterilized MTT was added in different plates. After 3 h, the content of the wells was gently solved and mixed with 100 μl of DMSO (MTT). Absorbance was measured at 540 nm. Compound cytotoxicity was expressed as LC50, the concentration of the compound that is lethal to 50 % of the cells.

Compound	T3log at 1X MIC (time needed to decrease 3 logs the initial inoculum) [1]	T3log at 2X MIC (time needed to decrease 3 logs the initial inoculum) [1]	T3log at 4X MIC (time needed to decrease 3 logs the initial inoculum) [1]	MBC (minimal bactericidal concentration) ([2]; PAO1, 24 h)	MIC (minimal inhibitory concentration) ([2]; PAO1, 24 h)	Disinfection activity (biofilm-forming bacteria killed, MTT test) ([3]; 10XMIC, 24 h at 37 °C, biofilms grown in microplates (static conditions))	Removal activity (biofilm mass removed, CV test) [4]	LC50 relative to the maximum concentration assayed [5]	MIC (minimal inhibitory concentration) ([2]; PAO1 planktonic cells, broth microdilution in Mueller Hinton medium, CLSI with some modifications)	MBC (minimal bactericidal concentration) ([2]; PAO1 planktonic cells, concentration causing a 3-log viability decrease in the initial inoculum, colony counts on TSA, 24 h, 37 °C)	Disinfection activity (biofilm-forming bacteria killed, MTT test) ([3]; PAO1, 24 h)
CCC(C)CCCCC(=O)N[C@@H](Cc1ccccc1)C(=O)N[C@@H](Cc1c[nH]c2ccccc12)C(=O)N[C@@H](CCCNC(=N)N)C(=O)N[C@H](C(=O)N[C@@H](CCCNC(=N)N)C(=O)N[C@H](C(=O)N[C@@H](CCCNC(=N)N)C(=O)N[C@@H](CCCNC(=N)N)C(N)=O)[C@@H](C)CC)[C@@H](C)CC (stereo partly shown) [6-MO-LF11-215] ({Octanoyl(6-Me)}-FWRIRIRR-NH2)	34 minutes	11 minutes	10 minutes	64 µg/mL (≈ 47.7 µM)	64 µg/mL (≈ 47.7 µM)	–	–	–	–	–	–
CCC(C)CCCCC(=O)N1CCC[C@H]1C(=O)N[C@@H](Cc1ccccc1)C(=O)N[C@@H](Cc1c[nH]c2ccccc12)C(=O)N[C@@H](CCCNC(=N)N)C(=O)N[C@H](C(=O)N[C@@H](CCCNC(=N)N)C(=O)N[C@H](C(=O)N[C@@H](CCCNC(=N)N)C(=O)N[C@@H](CCCNC(=N)N)C(N)=O)[C@@H](C)CC)[C@@H](C)CC (stereo partly shown) [6-MO-LF11-322] ({Octanoyl(6-Me)}-PFWRIRIRR-NH2)	41 minutes	39 minutes	19 minutes	64 µg/mL (≈ 44.5 µM)	64 µg/mL (≈ 44.5 µM)	–	–	–	–	–	–
CC[C@H](C)[C@H](NC(=O)[C@H](CCCNC(=N)N)NC(=O)[C@@H](NC(=O)[C@H](CCCNC(=N)N)NC(=O)[C@H](Cc1c[nH]c2ccccc12)NC(=O)[C@H](Cc1ccccc1)NC(=O)C(C)(C)CC)[C@@H](C)CC)C(=O)N[C@@H](CCCNC(=N)N)C(=O)N[C@@H](CCCNC(=N)N)C(N)=O [DI-MB-LF11-215] ({Butanoyl(2,2-Me2)}-FWRIRIRR-NH2)	17 minutes	11 minutes	10 minutes	16 µg/mL (≈ 12.3 µM)	16 µg/mL (≈ 12.3 µM)	medium-range disinfection activity	higher than 35%	–	–	–	–
CC[C@H](C)[C@H](NC(=O)[C@H](CCCNC(=N)N)NC(=O)[C@@H](NC(=O)[C@H](CCCNC(=N)N)NC(=O)[C@H](Cc1c[nH]c2ccccc12)NC(=O)[C@@H](N)Cc1ccccc1)[C@@H](C)CC)C(=O)N[C@@H](CCCNC(=N)N)C(=O)N[C@@H](CCCNC(=N)N)C(N)=O [LF11-215] (H-FWRIRIRR-NH2)	–	–	–	–	–	–	–	> 10 times their MIC	64 µg/mL (≈ 53.3 µM)	128 µg/mL (≈ 107 µM)	–
N=C(N)NCCC[C@H](NC(=O)[C@H](CCCNC(=N)N)NC(=O)[C@H](Cc1c[nH]c2ccccc12)NC(=O)[C@H](Cc1ccccc1)NC(=O)[C@H](CCCNC(=N)N)NC(=O)[C@H](CCCNC(=N)N)NC(=O)[C@H](Cc1c[nH]c2ccccc12)NC(=O)[C@@H](N)Cc1ccccc1)C(N)=O [LF11-227] (H-FWRRFWRR-NH2)	–	–	–	64 µg/mL (≈ 48.9 µM)	64 µg/mL (≈ 48.9 µM)	–	–	–	–	–	~100%
CC[C@H](C)[C@H](NC(=O)[C@H](CCCNC(=N)N)NC(=O)[C@@H](NC(=O)[C@H](CCCNC(=N)N)NC(=O)[C@H](Cc1c[nH]c2ccccc12)NC(=O)[C@H](Cc1ccccc1)NC(=O)[C@@H]1CCCN1)[C@@H](C)CC)C(=O)N[C@@H](CCCNC(=N)N)C(=O)N[C@@H](CCCNC(=N)N)C(N)=O [LF11-322] (H-PFWRIRIRR-NH2)	–	–	–	64 µg/mL (≈ 49.3 µM)	32 µg/mL (≈ 24.6 µM)	–	–	–	–	–	–
CC[C@H](C)[C@H](NC(=O)[C@H](CCCNC(=N)N)NC(=O)[C@@H](NC(=O)[C@H](CCCNC(=N)N)NC(=O)[C@H](Cc1c[nH]c2ccccc12)NC(=O)[C@H](Cc1ccccc1)NC(=O)[C@H](Cc1ccccc1)NC(=O)[C@@H]1CCCN1)[C@@H](C)CC)C(=O)N[C@@H](CCCNC(=N)N)C(=O)N[C@@H](CCCNC(=N)N)C(N)=O [LF11-324] (H-PFFWRIRIRR-NH2)	–	–	–	8 µg/mL (≈ 5.53 µM)	8 µg/mL (≈ 5.53 µM)	–	–	–	–	–	–
CCCCCCCC(=O)N[C@@H](Cc1ccccc1)C(=O)N[C@@H](Cc1c[nH]c2ccccc12)C(=O)N[C@@H](CCCNC(=N)N)C(=O)N[C@H](C(=O)N[C@@H](CCCNC(=N)N)C(=O)N[C@H](C(=O)N[C@@H](CCCNC(=N)N)C(=O)N[C@@H](CCCNC(=N)N)C(N)=O)[C@@H](C)CC)[C@@H](C)CC [O-LF11-215] (Octanoyl-FWRIRIRR-NH2)	17 minutes	21 minutes	10 minutes	32 µg/mL (≈ 24.1 µM)	32 µg/mL (≈ 24.1 µM)	–	–	–	–	–	–
CCCCCCCC(=O)N[C@@H](Cc1ccccc1)C(=O)N[C@@H](Cc1c[nH]c2ccccc12)C(=O)N[C@@H](CCCNC(=N)N)C(=O)N[C@@H](CCCNC(=N)N)C(=O)N[C@@H](Cc1ccccc1)C(=O)N[C@@H](Cc1c[nH]c2ccccc12)C(=O)N[C@@H](CCCNC(=N)N)C(=O)N[C@@H](CCCNC(=N)N)C(N)=O [O-LF11-227] (Octanoyl-FWRRFWRR-NH2)	10 minutes	10 minutes	10 minutes	128 µg/mL (≈ 89.2 µM)	128 µg/mL (≈ 89.2 µM)	–	–	–	–	–	–
